From patent US8624034B2, “Fluoro-pyridinone derivatives useful as antibacterial agents” (Pfizer Inc., priority 2011, dated 2014)
≈ marks a conversion by molar mass, not a printed value.

How the values were obtained:
[1] = system: Escherichia coli EC-1: VOGEL, mouse virulent; assay: MIC determination, EC-1; format: cell-based; details: Escherichia coli, read-out: EC-1 (MIC), Table 3, lower of duplicate values
Description: (§1) The in vitro antibacterial activity of compounds described in the Examples was evaluated by minimum inhibitory concentration (MIC) testing according to Clinical and Laboratory Standards Institute (CLSI). See: Clinical and Laboratory Standards Institute. Methods for Dilution Antimicrobial Susceptibility Tests for Bacteria that Grow Aerobically; Approved Standard-Eighth Edition. CLSI document M7-A8 [ISBN 1-56238-689-1]. Clinical and Laboratory Standards Institute, 940 West Valley Road, Suite 1400, Wayne, Pa. 19087-1898 USA, 2006; also Clinical and Laboratory Standards Institute. Performance Standards for Antimicrobial Susceptibility Testing; Twentieth Informational Supplement. CLSI document M100-S20 [ISBN 1-56238-716-2]. Clinical and Laboratory Standards Institute.
(§2) The MIC determination is a standard laboratory method for evaluating the antibacterial activity of a compound. The MIC represents the lowest drug concentration that inhibits visible growth of bacteria following overnight incubation. […] Typically, the drug concentration range is broken down into 2-fold increments (e.g. 0.06 μg/mL, 0.12 μg/mL. 0.25 μg/mL, 0.50 μg/mL, 1.0 μg/mL, etc.) and the various drug concentrations are all individually incubated overnight with approximately the same number of bacteria. The MIC is then determined by visually inspecting the drug effect at each concentration, and identifying the lowest drug concentration that has inhibited bacterial growth as compared to the drug free control. Typically, bacteria continue to grow at drug concentrations lower than the MIC and don't grow at concentrations at and above the MIC.
(§3) The MIC values described in Table 2 and 3 below were derived from assays wherein each test compound was evaluated in duplicate. In cases where the duplicate values varied by 0-2-fold, the lower of the two values was reported below. Generally speaking, if the duplicate values varied by more than 2-fold, the assay was considered non-valid and was repeated until the variation between duplicate runs was ≦2-fold. In line with the CLSI guidelines referred to above, both control organisms and reference compounds were utilized in each MIC assay to provide proper quality control. MIC values generated with these control organisms and reference compounds were required to fall within a defined range for the assay to be considered valid and be included herein. Those skilled in the art will recognize that MIC values can and do vary from experiment to experiment. Generally speaking, it should be recognized that MIC values often vary +/−2-fold from experiment to experiment. While a single MIC is reported for each compound and each microorganism, the reader should not conclude that each compound was only tested once. Several of the compounds were subjected to multiple tests. The data reported in Tables 2 and 3 is reflective of the compounds relative activity and different MICs may have been generated on these occasions in line with the guidelines described above.
(§4) The following bacterial strains were used in these MIC determinations:
3) Escherichia coli EC-1: VOGEL, mouse virulent labeled as EC-1 in Tables 2 and 3;

[2] = system: Acinetobacter baumannii/haemolyticus, multidrug-resistant clinical isolate (AB-3167); assay: MIC determination, AB-3167; format: cell-based; details: Table 3, lower of duplicate values
Description: as §1, §2, §3, §4
2) Acinetobacter baumannii/haemolyticus: Multidrug-resistant clinical isolate labeled as AB-3167 in Tables 2 and 3;

[3] = molecular target: T1, Pseudomonas aeruginosa LpxC enzyme (Pseudomonas aeruginosa, UniProt P47205); assay: IC50 assay, LpxC enzyme from P. aeruginosa (PA LpxC enzyme IC50); format: biochemical; details: Table 3; LpxC enzyme 0.1 nM, 25° C., 1 hour; read-out: PA:IC50
T1 construct: made in house; host or cells: E. coli
T1 sequence (P47205 1-303): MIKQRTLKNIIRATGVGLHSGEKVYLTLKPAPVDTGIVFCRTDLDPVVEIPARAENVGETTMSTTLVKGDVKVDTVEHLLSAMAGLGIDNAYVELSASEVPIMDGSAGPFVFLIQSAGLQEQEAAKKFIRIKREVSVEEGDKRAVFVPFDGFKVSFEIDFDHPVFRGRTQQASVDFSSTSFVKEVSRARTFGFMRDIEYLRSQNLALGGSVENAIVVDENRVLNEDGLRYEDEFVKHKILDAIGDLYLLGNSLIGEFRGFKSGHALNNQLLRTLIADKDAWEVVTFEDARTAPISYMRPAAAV
Description: In order to assess the compounds biological activity, selected in vitro assays were conducted on selected compounds. One of the assays measured the compounds ability to disrupt the synthesis of lipopolysaccharide, LPS, which is a component of the outer membrane of Gram-negative bacteria. Disruption of this synthesis is lethal to the bacteria. The assay determined the compound's ability to inhibit LpxC, which is the first enzyme in the biosynthetic pathway for LPS (measured as IC50). Additionally, MICs (minimal inhibitory concentrations) were determined for several bacteria. The specific protocols are described below:
A) IC50 Assay, LpxC Enzyme from P. aeruginosa (Labeled as PA LpxC Enzyme IC50):
At the end of 1 hour, 5 ul of 1 N HCl was added to stop the enzyme reaction, the plates were centrifuged, and then processed with the BioTrove Rapidfire HTMS Mass Spectrometry System. A no-enzyme control was used in calculating the IC50 values from the percent conversion values.

[4] = system: PA:UC12120; assay: MIC determination, PA:UC12120 (Table 3); format: cell-based, Pseudomonas aeruginosa; details: Pseudomonas aeruginosa, UC12120, Table 3, lower of duplicate values
Description: as §1, §2, §3
In Table 3 below, column 1 corresponds to the Example number, column 2 provides the IUPAC name, columns 3-6 provide in vitro biological data generated in the same manner as in Table 2, columns 7 and 8 provide the retention times and mass spectra generated via LCMS, using the method described below. All data is not currently available for all compounds, as indicated by a blank cell in Table 3.

SMILES | MIC [1] | MIC [2] | IC50 [3] | MIC [4]
CC(CCn1cc(F)c(-c2cccc(C#N)c2)cc1=O)(C(=O)NO)S(C)(=O)=O (stereo not drawn) [Example 82, 4-[4-(3-cyanophenyl)-5-fluoro-2-oxopyridin-1(2H)-yl]-N-hydroxy-2-methyl-2-(methylsulfonyl)butanamide] | 64 µg/mL (≈ 157 µM) | > 64 µg/mL | 13 nM | 8 µg/mL (≈ 19.6 µM)
Cc1ncc(-c2cc(=O)n(CCC(C)(C(=O)NO)S(C)(=O)=O)cc2F)cc1F (stereo not drawn) [Example 83, 4-(5,5′-difluoro-6-methyl-2′-oxo-3,4′-bipyridin-1′(2′H)-yl)-N-hydroxy-2-methyl-2-(methylsulfonyl)butanamide] | > 64 µg/mL | > 64 µg/mL | 27.5 nM | 32 µg/mL (≈ 77 µM)
CNC(=O)c1ccc(-c2cc(=O)n(CCC(C)(C(=O)NO)S(C)(=O)=O)cc2F)cc1 (stereo not drawn) [Example 84, 4-{5-fluoro-1-[4-(hydroxyamino)-3-methyl-3-(methylsulfonyl)-4-oxobutyl]-2-oxo-1,2-dihydropyridin-4-yl}-N-methylbenzamide] | > 64 µg/mL | > 64 µg/mL | 14.5 nM | > 64 µg/mL
CC(CCn1cc(F)c(-c2ccc(CO)nc2)cc1=O)(C(=O)NO)S(C)(=O)=O (stereo not drawn) [Example 85, 4-[5′-fluoro-6-(hydroxymethyl)-2′-oxo-3,4′-bipyridin-1′(2′H)-yl]-N-hydroxy-2-methyl-2-(methylsulfonyl)butanamide] | > 64 µg/mL | > 64 µg/mL | > 100 nM | > 64 µg/mL
CC(CCn1cc(F)c(-c2ccc(F)cc2)cc1=O)(C(=O)NO)S(C)(=O)=O (stereo not drawn) [Example 86, 4-[5-fluoro-4-(4-fluorophenyl)-2-oxopyridin-1(2H)-yl]-N-hydroxy-2-methyl-2-(methylsulfonyl)butanamide] | 4 µg/mL (≈ 9.99 µM) | > 64 µg/mL | 1.7 nM | 1 µg/mL (≈ 2.5 µM)
CC(CCn1cc(F)c(-c2cnc3ccccc3c2)cc1=O)(C(=O)NO)S(C)(=O)=O (stereo not drawn) [Example 87, 4-(5-fluoro-2-oxo-4-quinolin-3-ylpyridin-1(2H)-yl)-N-hydroxy-2-methyl-2-(methylsulfonyl)butanamide] | 16 µg/mL (≈ 36.9 µM) | > 64 µg/mL | 6.1 nM | 8 µg/mL (≈ 18.5 µM)
COC(C)c1ccc(-c2cc(=O)n(CCC(C)(C(=O)NO)S(C)(=O)=O)cc2F)cc1 (stereo not drawn) [Example 88, 4-{5-fluoro-4-[4-(1-methoxyethyl)phenyl]-2-oxopyridin-1(2H)-yl}-N-hydroxy-2-methyl-2-(methylsulfonyl)butanamide] | 16 µg/mL (≈ 36.3 µM) | > 64 µg/mL | 7.6 nM | 4 µg/mL (≈ 9.08 µM)
COc1ccc(-c2cc(=O)n(CCC(C)(C(=O)NO)S(C)(=O)=O)cc2F)cn1 (stereo not drawn) [Example 89, 4-(5′-fluoro-6-methoxy-2′-oxo-3,4′-bipyridin-1′(2′H)-yl)-N-hydroxy-2-methyl-2-(methylsulfonyl)butanamide] | 8 µg/mL (≈ 19.4 µM) | > 64 µg/mL | 3.1 nM | 2 µg/mL (≈ 4.84 µM)
CC(CCn1cc(F)c(-c2ccc(Cl)cn2)cc1=O)(C(=O)NO)S(C)(=O)=O (stereo not drawn) [Example 90, 4-(5-chloro-5′-fluoro-2′-oxo-2,4′-bipyridin-1′(2′H)-yl)-N-hydroxy-2-methyl-2-(methylsulfonyl)butanamide] | 64 µg/mL (≈ 153 µM) | > 64 µg/mL | 12.5 nM | 16 µg/mL (≈ 38.3 µM)
CC(CCn1cc(F)c(-c2ccc(CC#N)cc2)cc1=O)(C(=O)NO)S(C)(=O)=O (stereo not drawn) [Example 91, 4-{4-[4-(cyanomethyl)phenyl]-5-fluoro-2-oxopyridin-1(2H)-yl}-N-hydroxy-2-methyl-2-(methylsulfonyl)butanamide] | 16 µg/mL (≈ 38 µM) | > 64 µg/mL | 2.3 nM | 4 µg/mL (≈ 9.49 µM)
CCOc1cc(-c2cc(=O)n(CCC(C)(C(=O)NO)S(C)(=O)=O)cc2F)ccn1 (stereo not drawn) [Example 92, 4-(2′-ethoxy-5-fluoro-2-oxo-4,4′-bipyridin-1(2H)-yl)-N-hydroxy-2-methyl-2-(methylsulfonyl)butanamide] | 8 µg/mL (≈ 18.7 µM) | > 64 µg/mL | 5.7 nM | 8 µg/mL (≈ 18.7 µM)
COCc1cccc(-c2cc(=O)n(CCC(C)(C(=O)NO)S(C)(=O)=O)cc2F)c1 (stereo not drawn) [Example 93, 4-{5-fluoro-4-[3-(methoxymethyl)phenyl]-2-oxopyridin-1(2H)-yl}-N-hydroxy-2-methyl-2-(methylsulfonyl)butanamide] | 32 µg/mL (≈ 75 µM) | > 64 µg/mL | 14.2 nM | 8 µg/mL (≈ 18.8 µM)
CC(CCn1cc(F)c(-c2ccccc2C#N)cc1=O)(C(=O)NO)S(C)(=O)=O (stereo not drawn) [Example 94, 4-[4-(2-cyanophenyl)-5-fluoro-2-oxopyridin-1(2H)-yl]-N-hydroxy-2-methyl-2-(methylsulfonyl)butanamide] | 8 µg/mL (≈ 19.6 µM) | 32 µg/mL (≈ 78.5 µM) | 32.3 nM | 32 µg/mL (≈ 78.5 µM)
CCOc1ccc(-c2cc(=O)n(CCC(C)(C(=O)NO)S(C)(=O)=O)cc2F)cc1F (stereo not drawn) [Example 95, 4-[4-(4-ethoxy-3-fluorophenyl)-5-fluoro-2-oxopyridin-1(2H)-yl]-N-hydroxy-2-methyl-2-(methylsulfonyl)butanamide] | 1 µg/mL (≈ 2.25 µM) | 64 µg/mL (≈ 144 µM) | 1.2 nM | 2 µg/mL (≈ 4.5 µM)
Cc1ccc2ccc(-c3cc(=O)n(CCC(C)(C(=O)NO)S(C)(=O)=O)cc3F)cc2n1 (stereo not drawn) [Example 96, 4-[5-fluoro-4-(2-methylquinolin-7-yl)-2-oxopyridin-1(2H)-yl]-N-hydroxy-2-methyl-2-(methylsulfonyl)butanamide] | 16 µg/mL (≈ 35.8 µM) | > 64 µg/mL | 10.8 nM | 32 µg/mL (≈ 71.5 µM)
CC(CCn1cc(F)c(-c2ccc(F)cc2F)cc1=O)(C(=O)NO)S(C)(=O)=O (stereo not drawn) [Example 97, 4-[4-(2,4-difluorophenyl)-5-fluoro-2-oxopyridin-1(2H)-yl]-N-hydroxy-2-methyl-2-(methylsulfonyl)butanamide] | 4 µg/mL (≈ 9.56 µM) | > 64 µg/mL | 1.2 nM | 1 µg/mL (≈ 2.39 µM)
COc1ccc(-c2cc(=O)n(CCC(C)(C(=O)NO)S(C)(=O)=O)cc2F)cc1OC (stereo not drawn) [Example 98, 4-[4-(3,4-dimethoxyphenyl)-5-fluoro-2-oxopyridin-1(2H)-yl]-N-hydroxy-2-methyl-2-(methylsulfonyl)butanamide] | 64 µg/mL (≈ 145 µM) | > 64 µg/mL | 28.5 nM | 32 µg/mL (≈ 72.3 µM)
CCOc1ccc(-c2cc(=O)n(CCC(C)(C(=O)NO)S(C)(=O)=O)cc2F)cn1 (stereo not drawn) [Example 99, 4-(6-ethoxy-5′-fluoro-2′-oxo-3,4′-bipyridin-1′(2′H)-yl)-N-hydroxy-2-methyl-2-(methylsulfonyl)butanamide] | 2 µg/mL (≈ 4.68 µM) | > 64 µg/mL | 2.5 nM | 2 µg/mL (≈ 4.68 µM)
